Experimental data: patent US20100029654A1, “CARDIOVASCULAR COMPOSITIONS AND USE OF THE SAME FOR THE TREATMENT OF ALZHEIMER'S DISEASE” (MOUNT SINAI SCHOOL OF MEDICINE, priority 2006, published 2010)
Counter-ions that a name gives are not always drawn. Like-named read-outs stand apart in the source and are kept apart here.

How the values were obtained:
Aβ1-40 = Aβ1-40 content in conditioned medium of primary cortico-hippocampal neuron cultures from Tg2576 mice (ELISA; primary and secondary dose-response screening); assay type: cell-based, mouse; conditions: for activity at 100 µM: Mus musculus, Neuron, 24 h, read-out: Ab1-40 (% of ctl); for activity at 100 µM / Ab1-40 (% of ctl): drug 100 μM; for reduced Aβ1-40: <85% of ctl
Protocol: (§1) Potential Aβ-lowering activity was assessed for 150 commercially available cardiovascular drugs using primary cortico-hippocampal neuron cultures derived from embryonic Tg2576 (El 6). […] All cardiovascular reagents were obtained from MicroSource Discovery Systems Inc (Gaylordsville, Conn.). […] Individual cardiovascular agents were applied directly to the culture medium (final 1% DMSO in the culture media). In control studies, parallel Tg2576 primary neuron cultures were treated with vehicle (1% DMSO) alone. The influence of drug treatments in Aβ content in the conditioned medium in treated cultures was assessed by assessing steady state levels of Aβ1-40 and Aβ1-42 in the culture media 24 hours after treatment.
(§2) Embryonic brain tissue was mechanically triturated and centrifuged. Neurons were seeded onto poly-D-lysine-coated 96-well plates at 1.0×10^5 cells per well and cultured in the serum-free chemically-defined medium Neurobasal, supplemented with 2% B27, 0.5 mM L-glutamine and 1% penicillin-streptomycin (Gibco-BRL).
(§3) For primary screening, cultured neurons were treated with 100 μM of drug in duplicates for 16 hours; all drugs were obtained in stock from MicroSource Discovery Systems Inc (Gaylordsville, Conn.). Conditioned medium was collected for Aβ detection using commercially available ELISA kits (BioSource). […] Primary neurons prepared in 96-well plates were treated with 0.1 μM, 1 μM, 10 μM, 50 μM, and 100 μM of each drug in duplicate for ˜16 hours and conditioned medium was collected for Aβ detection.

Aβ1-42 = Aβ1-42 content in conditioned medium of primary cortico-hippocampal neuron cultures from Tg2576 mice (ELISA; primary and secondary dose-response screening); assay type: cell-based, mouse; conditions: for activity at 100 µM: Mus musculus, Neuron, 24 h, read-out: Ab1-42 (% of ctl); for activity at 100 µM / Ab1-42 (% of ctl): drug 100 μM; for reducing Aβ1-42: <85% of ctl
Protocol: as §1, §2, §3

[1] = tested on: primary cortico-hippocampal neuron cultures; test: MTT in primary screening
[2] = tested on: primary cortico-hippocampal neuron cultures; test: lactate dehydrogenase (LDH) activity assay in parallel neuron cultures
Protocol: For in vitro treatments drugs available from “The Spectrum Collection” in stocks of 10 mM in DMSO were applied directly to cultures to the desired concentrations (final 1% DMSO); control primary neuron cultures from Tg2576 embryos were treated with vehicle resulting in a final 1% DMSO.
Cell viability was assessed using a commercial available LDH assay kit according to the manufacture's instruction (Promega).

[3] = Primary Screening, table sorted by Aβ1-40
[4] = primary screening, Tg2576 neuron cultures, table sorted by Aβ1-42
[5] = primary screening, table sorted by Aβ1-42

Row | Structure (SMILES) | activity at 100 µM (Aβ1-40; [3]) | activity at 100 µM (Aβ1-40; [4]) | reduced Aβ1-40 (Aβ1-40; primary screening) | activity at 100 µM (Aβ1-42; [3]) | activity at 100 µM (Aβ1-42; [4]) | reducing Aβ1-42 (Aβ1-42; primary screening) | MTT (% of ctl) [1, 3] | MTT (% of ctl) [1, 5] | LDH (% of ctl) [2, 3] | LDH (% of ctl) [2, 5] | Ab1-40 (% of ctl) (Aβ1-40; [3]) | Ab1-40 (% of ctl) (Aβ1-40; [4]) | Ab1-42 (% of ctl) (Aβ1-42; [3]) | Ab1-42 (% of ctl) (Aβ1-42; [4]) | LDH at E-5M % of change ([2]; drug at E-5M)
1 | CCOC(=O)C1=C(COCCN)NC(C)=C(C(=O)OC)C1c1ccccc1Cl (stereo not drawn) [Amlodipine Besylate] | 4.9% | 4.9% | reduced Aβ1-40 | 10.2% | 10.2% | useful in reducing Aβ1-42 | 13.3 % of ctl | 13.3 % of ctl | 1188.9 % of ctl | 1188.9 % of ctl | – | – | – | – | –
2 | CC(C)OC(=O)C(C)(C)Oc1ccc(C(=O)c2ccc(Cl)cc2)cc1 [Fenofibrate] | 13.9% | 13.9% | – | 77.7% | 77.7% | – | 97.5 % of ctl | 97.5 % of ctl | 140.0 % of ctl | 140.0 % of ctl | – | – | – | – | –
3 | NC(N)=NC(=O)c1nc(Cl)c(N2CCCCCC2)nc1N [N,N-Hexamethyleneamiloride] | – | – | reduced Aβ1-40 | – | – | useful in reducing Aβ1-42 | 96.1 % of ctl | 96.1 % of ctl | 117.3 % of ctl | 117.3 % of ctl | 15.4 % of ctl | 15.4 % of ctl | 26.2 % of ctl | 26.2 % of ctl | –
4 | CCOc1nc2cccc(C(=O)OC(C)OC(=O)OC3CCCCC3)c2n1Cc1ccc(-c2ccccc2-c2nn[nH]n2)cc1 (stereo not drawn) [Candesartan Cilextil] | – | – | reduced Aβ1-40 | – | – | useful in reducing Aβ1-42 | 41.2 % of ctl | 41.2 % of ctl | 227.6 % of ctl | 227.6 % of ctl | 9.3 % of ctl | 9.3 % of ctl | 18.1 % of ctl | 18.1 % of ctl | –
5 | CC(C)COCC(CN(Cc1ccccc1)c1ccccc1)N1CCCC1 (stereo not drawn) [Bepridil Hydrochloride] | 5.1% | 5.1% | reduced Aβ1-40 | 19.9% | 19.9% | useful in reducing Aβ1-42 | 77.1 % of ctl | 77.1 % of ctl | 1885.2 % of ctl | 1885.2 % of ctl | – | – | – | – | –
6 | C1CCC(C(CC2CCCCN2)C2CCCCC2)CC1 (stereo not drawn) [Perhexiline Maleate] | 4.8% | 4.8% | reduced Aβ1-40 | 26.2% | 26.2% | useful in reducing Aβ1-42 | 7.2 % of ctl | 7.2 % of ctl | 1065.9 % of ctl | 1065.9 % of ctl | – | – | – | – | –
7 | O=c1oc2c(O)c(O)cc3c(=O)oc4c(O)c(O)cc1c4c23 [Ellagic Acid] | 96.6% | 96.6% | – | 94% | 94% | – | 85.2 % of ctl | 85.2 % of ctl | 109.2 % of ctl | 109.2 % of ctl | – | – | – | – | –
8 | CCC(C(N)=O)c1ccccc1 (stereo not drawn) [Fenbutyramide] | 91.6% | 91.6% | – | 96.3% | 96.3% | – | 108.6 % of ctl | 108.6 % of ctl | 135.0 % of ctl | 135.0 % of ctl | – | – | – | – | –
9 | CCCCc1oc2ccccc2c1C(=O)c1cc(I)c(OCCN(CC)CC)c(I)c1 [Amiodarone Hydrochloride] | 14.9% | 14.9% | reduced Aβ1-40 | 23.2% | 23.2% | useful in reducing Aβ1-42 | – | – | – | – | – | – | – | – | 1.9%
10 | CCN(CC)CCOC(=O)C(Cc1cccc2ccccc12)CC1CCCO1 (stereo not drawn) [Nafronyl Oxalate] | 134% | 134% | – | 145% | 145% | – | 103.2 % of ctl | 103.2 % of ctl | 96.6 % of ctl | 96.6 % of ctl | – | – | – | – | –
11 | CC(=O)Nc1ccc(OCC(O)CNC(C)C)cc1 (stereo not drawn) [Practolol] | 99.7% | 99.7% | – | 99.9% | 99.9% | – | 101.3 % of ctl | 101.3 % of ctl | 108.9 % of ctl | 108.9 % of ctl | – | – | – | – | –
12 | CC(C)(Oc1ccc(CCNC(=O)c2ccc(Cl)cc2)cc1)C(=O)O [BENZAFIBRATE] | – | – | – | – | – | – | – | – | – | – | 107.2 % of ctl | 107.2 % of ctl | 99.5 % of ctl | 99.5 % of ctl | –
13 | Cn1cnc2c1c(=O)[nH]c(=O)n2C [Theobromine] | 101% | 101% | – | 117% | 117% | – | 97.2 % of ctl | 97.2 % of ctl | 118.3 % of ctl | 118.3 % of ctl | – | – | – | – | –
14 | NS(=O)(=O)c1cc(C2(O)NC(=O)c3ccccc32)ccc1Cl (stereo not drawn) [Chlorthalidone] | 108% | 108% | – | 96.7% | 96.7% | – | 12.1 % of ctl | 12.1 % of ctl | 645.8 % of ctl | 645.8 % of ctl | – | – | – | – | –
15 | COCCc1ccc(OCC(O)CNC(C)C)cc1 (stereo not drawn) [Metoprolol Tartrate] | 91.4% | 91.4% | – | 104% | 104% | – | 94.7 % of ctl | 94.7 % of ctl | 107.5 % of ctl | 107.5 % of ctl | – | – | – | – | –
16 | CCOc1ccccc1OCCN[C@H](C)Cc1ccc(OC)c(S(N)(=O)=O)c1.Cl [Tamsulosin Hydrchloride] | – | – | – | – | – | – | 96.1 % of ctl | 96.1 % of ctl | 102.2 % of ctl | 102.2 % of ctl | 106.5 % of ctl | 106.5 % of ctl | 91.8 % of ctl | 91.8 % of ctl | –
17 | C[C@H](CS)C(=O)N1CCC[C@H]1C(=O)O [Captopril] | 104% | 104% | – | 99.7% | 99.7% | – | 62.3 % of ctl | 62.3 % of ctl | 120.2 % of ctl | 120.2 % of ctl | – | – | – | – | –
18 | CCCCNc1cc(C(=O)O)cc(S(N)(=O)=O)c1Oc1ccccc1 [Bumetanide] | 2.3% | 2.3% | reduced Aβ1-40 | 74.7% | 74.7% | useful in reducing Aβ1-42 | 95.3 % of ctl | 95.3 % of ctl | 118.1 % of ctl | 118.1 % of ctl | – | – | – | – | –
19 | CCCC(=O)Nc1ccc(OCC(O)CNC(C)C)c(C(C)=O)c1 (stereo not drawn) [Acebutolol Hydrochloride] | 134% | 134% | – | 165% | 165% | – | 99.4 % of ctl | 99.4 % of ctl | 107.6 % of ctl | 107.6 % of ctl | – | – | – | – | –
20 | CC[C@@H](C)C(=O)O[C@H]1[C@H](O)[C@H]2[C@@H](CN3C[C@@H](C)CC[C@H]3[C@@]2(C)O)[C@@H]2C[C@]34O[C@]5(O)[C@@H](OC(=O)[C@@](C)(O)CC)CC[C@@]3(C)[C@@H]5[C@@H](OC(C)=O)[C@@H](OC(C)=O)[C@H]4[C@@]21O [Protoveratrine A] | – | – | – | – | – | – | – | – | – | – | 91.7 % of ctl | 91.7 % of ctl | 104.6 % of ctl | 104.6 % of ctl | –
21 | CC(C)(C)NCC(O)c1ccccc1Cl (stereo not drawn) [Tulobuterol] | 95.5% | 95.5% | – | – | – | – | – | – | – | – | – | – | – | – | –
22 | NC(N)=O [Urea] | – | – | – | – | – | – | 96.7 % of ctl | 96.7 % of ctl | 130.8 % of ctl | 130.8 % of ctl | – | – | 104.9 % of ctl | 104.9 % of ctl | –
